# Columns and labels:
# [1] = system: A431 skin cancer cell line; experiment: Cancer cell growth inhibition, A431 (SRB); details: Homo sapiens, A-431, 72 h, read-out: ID50 (nM) A431
# [2] = system: SK-Br3 breast cancer cell line; experiment: Cancer cell growth inhibition, SK-Br3 (SRB); details: Homo sapiens, SK-BR-3, 72 h, read-out: ID50 (nM) SK-Br3
IC50 [1],IC50 [2],SMILES
85 nM,316 nM,"C/C=C/C(=O)N1CC[C@H](Oc2cc3c(Nc4ccc(F)c(Cl)c4F)ncnc3cc2OC)C1 [Example 2, (E)-1-((3S)-3-(4-(3-chloro-2,4-difluorophenylamino)-7-methoxyquinazolin-6-yloxy)pyrrolidin-1-yl)but-2-en-1-one]"
37 nM,1300 nM,"CC#CC(=O)N1CC[C@H](Oc2cc3c(Nc4ccc(F)c(Cl)c4F)ncnc3cc2OC)C1 [Example 3, 1-((3S)-3-(4-(3-chloro-2,4-difluorophenylamino)-7-methoxyquinazolin-6-yloxy)pyrrolidin-1-yl)but-2-yn-1-one]"
53 nM,604 nM,"COc1cc2ncnc(Nc3ccc(F)c(Cl)c3F)c2cc1O[C@H]1CCN(C(=O)C#CCCN2CCN(C)CC2)C1 [Example 4, 1-((3S)-3-(4-(3-chloro-2,4-difluorophenylamino)-7-methoxyquinazolin-6-yloxy)pyrrolidin-1-yl)-5-(4-methylpiperazin-1-yl)pent-2-yn-1-one]"
33 nM,128 nM,"COc1cc2ncnc(Nc3ccc(F)c(Cl)c3F)c2cc1O[C@H]1CCN(C(=O)C#CCN(C)C)C1 [Example 5, 1-((3S)-3-(4-(3-chloro-2,4-difluorophenylamino)-7-methoxyquinazolin-6-yloxy)pyrrolidin-1-yl)-4-(dimethylamino)but-2-yn-1-one]"
531 nM,1670 nM,"C=CC(=O)N1CC[C@H](Oc2cc3c(Nc4cccc(Cl)c4F)ncnc3cc2OC)C1 [Example 6, 1-((3S)-3-(4-(3-chloro-2-fluorophenylamino)-7-methoxyquinazolin-6-yloxy)pyrrolidin-1-yl)pro-2-pen-1-one]"
15 nM,58 nM,"C=CC(=O)N1CC[C@H](Oc2cc3c(Nc4ccc(Br)cc4F)ncnc3cc2OC)C1 [Example 9, 1-((3S)-3-(4-(4-bromo-2-fluorophenylamino)-7-methoxyquinazolin-6-yloxy)pyrrolidin-1-yl)pro-2-pen-1-one]"
19 nM,3 nM,"C=CC(=O)N1CC[C@H](Oc2cc3c(Nc4ccc5c(cnn5Cc5cccc(F)c5)c4)ncnc3cc2OC)C1 [Example 12, 1-((3S)-3-(4-(1-(3-fluorobenzyl)-1H-indazol-5-ylamino)-7-methoxyquinazolin-6-yloxy)pyrrolidin-1-yl)pro-2-pen-1-one]"
,17 nM,"C=CC(=O)N1CC[C@H](Oc2cc3c(Nc4ccc(F)c(Cl)c4)ncnc3cc2OC)C1 [Example 13, 1-((3S)-3-(4-(3-chloro-4-fluorophenylamino)-7-methoxyquinazolin-6-yloxy)pyrrolidin-1-yl)pro-2-pen-1-one]"
,128 nM,C=CC(=O)N1CC[C@@H](Oc2cc3c(Nc4ccc(F)c(Cl)c4)ncnc3cc2OC)C1 [Example 14]
6 nM,19 nM,"C=CC(=O)N1CCCC(Oc2cc3c(Nc4ccc(F)c(Cl)c4F)ncnc3cc2OC)C1 (centres unmarked) [Example 18, 1-(3-(4-(3-chloro-2,4-difluorophenylamino)-7-methoxyquinazolin-6-yloxy)piperidin-1-yl)pro-2-pen-1-one]"
222 nM,57 nM,C=CC(=O)N1CC[C@@H](Oc2cc3c(Nc4ccc(F)c(Cl)c4F)ncnc3cc2OC)C1 [Example 20]
,2 nM,"C=CC(=O)N1CCC(Oc2cc3c(Nc4ccc(Cl)c(Cl)c4)ncnc3cc2OC)CC1 [Example 44, 1-(4-(4-(3,4-dichlorophenylamino)-7-methoxyquinazolin-6-yloxy)piperidin-1-yl)pro-2-pen-1-one]"
,2 nM,"C=CC(=O)N1CCC(Oc2cc3c(Nc4ccc(OCc5ccccn5)c(Cl)c4)ncnc3cc2OC)CC1 [Example 55, 1-(4-(4-(3-chloro-4-(pyridin-2-ylmethoxy)phenylamino)-7-methoxyquinazolin-6-yloxy)piperidin-1-yl)pro-2-pen-1-one]"
,45 nM,"COc1cc2ncnc(Nc3ccc(F)c(Cl)c3F)c2cc1OC1CCN(C(=O)/C=C/CN(C)C)CC1 [Example 98, (E)-1-(4-(4-(3-chloro-2,4-difluorophenylamino)-7-methoxyquinazolin-6-yloxy)piperidin-1-yl)-4-(dimethylamino)but-2-en-1-one]"
